Measurements reported in patent US20120277161A1, “INHIBITION OF MULTIPLE CELL ACTIVATION PATHWAYS” (INTER-K PTY LIMITED, priority 2009, published 2012).

How the values were obtained:
human Yes = human Yes (Homo sapiens, UniProt P07947); test: Yes kinase activity assay; type: biochemical; details: 20 μM
Method: In a final reaction volume of 25 μl, human Yes is incubated with the RSKAKNPLYR peptide (SEQ ID No: 6) in 8 mM MOPS buffer pH 7.0, 0.2 mM EDTA, 0.1 mg/ml poly(Glu,Tyr) 4:1, 10 mM Mg acetate and [γ-33P-ATP] (specific activity approx. 500 cpm/pmol). The reaction is initiated by the addition of the MgATP mix, incubated for 40 minutes at room temperature prior to being stopped and kinase activity assessed by scintillation counting again as per the protocol described for c-Src in Example 1.1.

JNK = JNK activity; type: biochemical; details: 20 μM, data not shown
[1] = system: MCF-7 breast cancer cells; test: MTT growth/proliferation, MCF-7 cells; type: cell-based; details: 48 hours
Method: In this study, the cells were incubated in the presence of the dendrimer for 48 hours. Cell lines were maintained at 37° C. in a humid atmosphere containing 5% CO2. Cells were passaged at pre-confluent densities using a solution containing 0.05% trypsin and 0.5 mM EDTA (Invitrogen).

PI3K P110δ = PI3K P110δ (Homo sapiens, UniProt O00329); test: PI3K HTRF activity assay; type: biochemical
Sequence of PI3K P110δ (O00329 whole entry, the tested form may be a part): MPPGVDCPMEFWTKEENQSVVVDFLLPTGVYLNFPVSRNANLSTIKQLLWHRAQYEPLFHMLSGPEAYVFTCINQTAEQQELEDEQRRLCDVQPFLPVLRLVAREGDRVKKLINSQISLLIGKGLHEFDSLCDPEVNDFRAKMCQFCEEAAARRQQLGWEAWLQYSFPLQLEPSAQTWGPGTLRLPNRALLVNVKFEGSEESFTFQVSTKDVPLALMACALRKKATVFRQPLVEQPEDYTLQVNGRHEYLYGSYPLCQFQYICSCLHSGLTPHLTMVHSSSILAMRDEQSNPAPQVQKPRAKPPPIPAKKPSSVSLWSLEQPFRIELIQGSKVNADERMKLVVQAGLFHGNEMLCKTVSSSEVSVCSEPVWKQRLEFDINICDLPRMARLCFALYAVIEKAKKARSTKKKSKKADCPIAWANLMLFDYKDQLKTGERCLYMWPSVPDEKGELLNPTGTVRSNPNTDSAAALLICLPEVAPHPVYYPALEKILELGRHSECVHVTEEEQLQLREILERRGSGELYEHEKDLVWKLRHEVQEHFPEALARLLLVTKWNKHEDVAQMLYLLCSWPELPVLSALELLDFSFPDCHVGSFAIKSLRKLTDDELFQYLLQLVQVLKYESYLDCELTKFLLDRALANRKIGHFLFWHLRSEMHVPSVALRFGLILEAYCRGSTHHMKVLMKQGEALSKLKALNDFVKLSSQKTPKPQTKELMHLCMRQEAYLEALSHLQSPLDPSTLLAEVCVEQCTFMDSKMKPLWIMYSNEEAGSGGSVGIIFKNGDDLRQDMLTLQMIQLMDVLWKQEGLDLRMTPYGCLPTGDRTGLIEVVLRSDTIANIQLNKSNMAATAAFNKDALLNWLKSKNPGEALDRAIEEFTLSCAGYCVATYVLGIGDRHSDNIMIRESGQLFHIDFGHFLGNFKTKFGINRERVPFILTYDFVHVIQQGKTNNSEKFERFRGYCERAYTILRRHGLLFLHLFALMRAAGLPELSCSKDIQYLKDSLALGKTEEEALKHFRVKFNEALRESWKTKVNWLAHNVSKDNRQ
Sequence of PI3K P110δ (P27986 whole entry partner, the tested form may be a part): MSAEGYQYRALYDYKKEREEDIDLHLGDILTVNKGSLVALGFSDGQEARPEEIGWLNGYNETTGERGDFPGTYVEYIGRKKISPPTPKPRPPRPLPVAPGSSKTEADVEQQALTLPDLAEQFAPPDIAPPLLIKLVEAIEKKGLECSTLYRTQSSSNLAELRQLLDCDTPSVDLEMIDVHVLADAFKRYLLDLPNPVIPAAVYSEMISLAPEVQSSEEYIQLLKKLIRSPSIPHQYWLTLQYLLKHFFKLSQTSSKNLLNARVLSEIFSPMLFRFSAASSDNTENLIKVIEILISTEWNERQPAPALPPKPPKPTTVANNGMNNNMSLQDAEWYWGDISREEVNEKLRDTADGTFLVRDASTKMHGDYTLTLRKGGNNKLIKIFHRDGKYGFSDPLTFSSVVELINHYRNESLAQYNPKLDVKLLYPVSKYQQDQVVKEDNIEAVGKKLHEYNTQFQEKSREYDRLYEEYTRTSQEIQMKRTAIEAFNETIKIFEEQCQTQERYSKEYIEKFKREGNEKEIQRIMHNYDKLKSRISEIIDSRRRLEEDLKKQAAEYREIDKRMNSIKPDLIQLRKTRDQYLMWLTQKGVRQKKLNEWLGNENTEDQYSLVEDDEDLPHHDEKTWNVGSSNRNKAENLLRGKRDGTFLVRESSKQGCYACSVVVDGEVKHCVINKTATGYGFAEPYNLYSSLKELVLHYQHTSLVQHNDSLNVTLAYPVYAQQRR
Method: (§1) In a final reaction volume of 20 μL, the test PI3K is incubated in assay buffer containing 10 μM phosphatidylinositol-4,5-bisphosphate and MgATP. The reaction is initiated by the addition of the MgATP mix. After incubation for 30 minutes at room temperature, the reaction is stopped by the addition of 5 μL of stop solution containing EDTA and biotinylated phosphatidylinositol-3,4,5-trisphosphate. Finally, 5 μL of detection buffer is added (containing europium-labelled anti-GST monoclonal antibody, GST-tagged GRP1 PH domain and streptavidin-allophycocyanin). The test plate is then read in time-resolved fluorescence mode and the homogenous time-resolved fluorescence (HTRF) signal is determined according to the formula HTRF=10000×(Em665 nm/Em620 nm).

PI3K beta = PI3K beta (Homo sapiens, UniProt P42338); test: PI3K HTRF activity assay; type: biochemical
Sequence of PI3K beta (P42338 whole entry, species assumed): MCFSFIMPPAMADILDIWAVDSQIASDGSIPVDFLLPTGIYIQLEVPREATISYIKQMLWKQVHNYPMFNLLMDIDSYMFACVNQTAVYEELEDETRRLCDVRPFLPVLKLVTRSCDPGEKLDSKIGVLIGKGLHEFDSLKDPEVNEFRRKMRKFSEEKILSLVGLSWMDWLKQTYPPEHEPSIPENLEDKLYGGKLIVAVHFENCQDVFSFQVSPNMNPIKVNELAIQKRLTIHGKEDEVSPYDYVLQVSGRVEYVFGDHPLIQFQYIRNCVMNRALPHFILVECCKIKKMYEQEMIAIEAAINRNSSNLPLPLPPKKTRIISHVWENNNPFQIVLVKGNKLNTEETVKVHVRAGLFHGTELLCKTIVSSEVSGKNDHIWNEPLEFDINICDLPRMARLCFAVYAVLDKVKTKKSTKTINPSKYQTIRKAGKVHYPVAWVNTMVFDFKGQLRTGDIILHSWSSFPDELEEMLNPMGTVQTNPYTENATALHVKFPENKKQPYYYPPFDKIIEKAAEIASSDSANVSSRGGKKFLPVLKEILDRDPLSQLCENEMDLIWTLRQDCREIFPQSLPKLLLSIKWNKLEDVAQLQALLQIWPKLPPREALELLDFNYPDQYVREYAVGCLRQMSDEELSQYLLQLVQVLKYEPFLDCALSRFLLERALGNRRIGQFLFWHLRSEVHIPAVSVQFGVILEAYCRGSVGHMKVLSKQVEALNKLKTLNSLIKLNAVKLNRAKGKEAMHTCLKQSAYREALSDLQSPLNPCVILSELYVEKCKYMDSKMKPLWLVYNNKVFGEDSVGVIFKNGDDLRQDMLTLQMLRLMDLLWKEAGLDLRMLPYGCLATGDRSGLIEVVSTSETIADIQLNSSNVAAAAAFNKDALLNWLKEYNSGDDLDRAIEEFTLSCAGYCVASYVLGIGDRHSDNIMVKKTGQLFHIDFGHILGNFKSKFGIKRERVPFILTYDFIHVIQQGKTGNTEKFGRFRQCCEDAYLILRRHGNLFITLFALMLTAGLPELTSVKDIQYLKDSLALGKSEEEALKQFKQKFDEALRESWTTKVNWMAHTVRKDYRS
Sequence of PI3K beta (P27986 whole entry partner, species assumed): as the sequence (P27986 whole entry partner, the tested form may be a part) above
Method: as §1

PKB beta = PKB beta (Homo sapiens, UniProt P31751); test: PKB kinase activity assay; type: biochemical
Sequence of PKB beta (P31751 whole entry): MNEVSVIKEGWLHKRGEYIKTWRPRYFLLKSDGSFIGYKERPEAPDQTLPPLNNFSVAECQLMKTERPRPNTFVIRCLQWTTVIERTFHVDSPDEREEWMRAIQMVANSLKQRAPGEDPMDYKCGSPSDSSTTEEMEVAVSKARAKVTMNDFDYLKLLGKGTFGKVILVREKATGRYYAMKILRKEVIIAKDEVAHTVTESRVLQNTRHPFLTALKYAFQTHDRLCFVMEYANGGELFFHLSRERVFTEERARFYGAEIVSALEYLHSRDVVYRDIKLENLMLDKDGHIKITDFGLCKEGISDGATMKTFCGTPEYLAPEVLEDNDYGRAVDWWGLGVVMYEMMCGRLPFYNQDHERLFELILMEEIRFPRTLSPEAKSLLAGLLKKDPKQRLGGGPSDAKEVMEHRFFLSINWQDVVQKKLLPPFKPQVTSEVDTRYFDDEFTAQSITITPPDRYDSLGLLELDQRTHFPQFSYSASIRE
Method: (§2) In a final reaction volume of 25 μL, PKB(h) (5-10 mU) is incubated with 8 mM MOPS pH 7.0, 0.2 mM EDTA, 30 μM GRPRTSSFAEGKK (SEQ ID No. 26), 10 mM MgAcetate and [γ-33P-ATP] (specific activity approx. 500 cpm/pmol, concentration as required). The reaction is initiated by the addition of the MgATP mix. After incubation for 40 minutes at room temperature, the reaction is stopped by the addition of 5 μL of a 3% phosphoric acid solution. 10 μL of the reaction mixture is then spotted onto a P30 filtermat and washed three times for 5 minutes in 75 mM phosphoric acid and once in methanol prior to drying and scintillation counting.

PKB gamma = PKB gamma (Homo sapiens, UniProt Q9Y243); test: PKB kinase activity assay; type: biochemical
Sequence of PKB gamma (Q9Y243 whole entry): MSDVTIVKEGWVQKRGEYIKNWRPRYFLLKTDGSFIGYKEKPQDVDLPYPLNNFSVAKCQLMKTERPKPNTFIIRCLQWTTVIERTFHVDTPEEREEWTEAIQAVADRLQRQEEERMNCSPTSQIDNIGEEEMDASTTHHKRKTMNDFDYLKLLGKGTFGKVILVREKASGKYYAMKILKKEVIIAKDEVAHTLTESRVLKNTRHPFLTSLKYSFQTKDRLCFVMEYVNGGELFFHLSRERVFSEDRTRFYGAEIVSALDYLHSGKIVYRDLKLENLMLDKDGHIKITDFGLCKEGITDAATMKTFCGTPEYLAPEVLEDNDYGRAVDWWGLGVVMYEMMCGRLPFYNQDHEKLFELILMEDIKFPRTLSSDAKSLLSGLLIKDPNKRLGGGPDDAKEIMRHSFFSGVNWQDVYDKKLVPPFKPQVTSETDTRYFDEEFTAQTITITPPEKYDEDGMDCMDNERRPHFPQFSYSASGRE
Method: as §2

FAK = FAK (Homo sapiens, UniProt Q05397); test: FAK activity; type: biochemical; details: 20 μM, data not shown
Sequence of FAK (Q05397 whole entry, species assumed): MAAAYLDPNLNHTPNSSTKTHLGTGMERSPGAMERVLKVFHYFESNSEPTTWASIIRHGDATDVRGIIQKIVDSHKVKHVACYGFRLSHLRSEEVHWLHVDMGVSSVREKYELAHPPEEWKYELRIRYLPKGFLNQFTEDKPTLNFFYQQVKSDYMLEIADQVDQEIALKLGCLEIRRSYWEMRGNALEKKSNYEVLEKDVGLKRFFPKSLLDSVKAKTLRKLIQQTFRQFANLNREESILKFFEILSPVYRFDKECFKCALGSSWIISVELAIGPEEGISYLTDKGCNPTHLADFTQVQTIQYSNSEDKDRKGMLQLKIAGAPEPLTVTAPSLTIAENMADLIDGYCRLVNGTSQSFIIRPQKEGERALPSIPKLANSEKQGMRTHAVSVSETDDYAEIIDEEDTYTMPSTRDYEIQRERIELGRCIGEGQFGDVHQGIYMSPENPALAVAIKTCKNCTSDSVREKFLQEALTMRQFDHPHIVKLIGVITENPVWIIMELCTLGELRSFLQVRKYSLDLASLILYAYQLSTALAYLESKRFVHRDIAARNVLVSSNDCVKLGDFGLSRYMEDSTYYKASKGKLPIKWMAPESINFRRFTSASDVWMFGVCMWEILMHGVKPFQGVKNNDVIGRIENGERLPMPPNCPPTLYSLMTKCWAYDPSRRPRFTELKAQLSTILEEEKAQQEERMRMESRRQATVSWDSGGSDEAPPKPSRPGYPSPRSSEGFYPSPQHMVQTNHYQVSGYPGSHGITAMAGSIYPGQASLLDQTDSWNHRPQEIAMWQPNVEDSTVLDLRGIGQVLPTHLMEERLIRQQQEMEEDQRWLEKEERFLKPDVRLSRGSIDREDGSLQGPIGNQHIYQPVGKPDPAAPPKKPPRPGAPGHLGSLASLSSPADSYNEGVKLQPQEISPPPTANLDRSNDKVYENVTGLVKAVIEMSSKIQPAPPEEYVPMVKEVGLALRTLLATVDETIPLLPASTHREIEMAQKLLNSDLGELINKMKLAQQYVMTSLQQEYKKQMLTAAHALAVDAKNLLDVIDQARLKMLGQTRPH

## Dend 10-10(4) whose RSKAKNPLYR peptides are entirely D-amino acids and pegylated with two ethylene glycol units [Dend 10-10(4)DP]
Human Yes
  inhibition of the activity of c-Yes relative to controls: 99%
JNK
  effect on activity of JNK: without any effect
[1]
  inhibition of growth/proliferation of MCF-7 cells: inhibited growth/proliferation
PI3K P110δ; dendrimer conc. 1 μM
  Percentage (%) kinase inhibition PI3K P110δ: 39%
PI3K P110δ; dendrimer conc. 2 μM
  Percentage (%) kinase inhibition PI3K P110δ: 56%
PI3K P110δ; dendrimer conc. 250 nm
  Percentage (%) kinase inhibition PI3K P110δ: 9%
PI3K P110δ; dendrimer conc. 500 nm
  Percentage (%) kinase inhibition PI3K P110δ: 25%
PI3K beta; 20 μM final concentration
  PI3K beta % inhibition: approx. 92%
PI3K beta; dendrimer conc. 1 μM
  Percentage (%) kinase inhibition PI3K P110β: 39%
PI3K beta; dendrimer conc. 2 μM
  Percentage (%) kinase inhibition PI3K P110β: 53%
PI3K beta; dendrimer conc. 250 nm
  Percentage (%) kinase inhibition PI3K P110β: 28%
PI3K beta; dendrimer conc. 500 nm
  Percentage (%) kinase inhibition PI3K P110β: 34%
PKB beta; 20 μM, relative to control
  % Kinase inhibition PKB beta: 85%
PKB beta; dendrimer conc. 1 μM
  Percentage (%) kinase inhibition PKB beta: 68%
PKB beta; dendrimer conc. 2 μM
  Percentage (%) kinase inhibition PKB beta: 70%
PKB beta; dendrimer conc. 250 nm
  Percentage (%) kinase inhibition PKB beta: 53%
PKB beta; dendrimer conc. 500 nm
  Percentage (%) kinase inhibition PKB beta: 66%
PKB gamma; 20 μM, relative to control
  % Kinase inhibition PKB gamma: 96%
PKB gamma; dendrimer conc. 1 μM
  Percentage (%) kinase inhibition PKB gamma: 93%
PKB gamma; dendrimer conc. 2 μM
  Percentage (%) kinase inhibition PKB gamma: 92%
PKB gamma; dendrimer conc. 250 nm
  Percentage (%) kinase inhibition PKB gamma: 94%
PKB gamma; dendrimer conc. 500 nm
  Percentage (%) kinase inhibition PKB gamma: 98%
FAK
  effect on activity of FAK: without any effect
